Reference: patent publication US12465618B2, “Compositions and methods for degenerative disc regeneration” (University Health Network, priority 2015, dated 2025)

Assays:
Type in all cases: cell-based
[1] = tested on: human degenerated disc NP cells; test: BrdU-ELISA cell proliferation assay; settings: 72 hrs
Procedure: (§1) Nucleus pulposus cells (rat, bovine and human) were plated in 96-well flat bottom plates in order to evaluate the effect of treatment with growth factors in cell viability and proliferation assays. Rat NP cells were treated with CTGF, WISP-2 and TGFβ1 in a dose (1 ng/mL-100 ng/mL) and time dependent manner (24 hrs-96 hrs) to determine the optimum dose and time for the assessment of these growth factors on viability. Cell viability was determined using 3-(4,5-dimethylthiazol-2-yl)-2,5-diphenyltetrazolium bromide (MTT, Sigma-Aldrich, USA) as previously described^44. A BrdU-ELISA (colorimetric) assay (Cat #ab126556, Abcam) was used for determining the effect of treatment with CTGF or TGFβ1 on human and rat NP cells (healthy/injured) following the manufacturer's instructions. Briefly, NP cells were treated with CTGF or TGFβ1 alone or in combination for 48 hrs following addition of BrdU reagent O/N in each well. Incorporated BrdU in DNA of proliferating cells was determined using anti-BrdU antibody and quantified by ELISA as per the manufacturer's instructions.

[2] = tested on: rat NP cells (healthy/injured); test: BrdU-ELISA cell proliferation assay; settings: rat-tail (healthy/injured) NP cells, 72 hrs
Procedure: as §1

[3] = tested on: rat NP cells; test: Western blotting of rat NP cells treated with IL-1β/TNFα with or without inhibitors or growth factors; settings: rat-tail NP cells treated with IL-1β and TNFα, Western blot, FIG. 5g-5h
Procedure: After euthanasia, healthy rat lumbar/caudal spine IVDs, injured tail discs and bovine caudal IVD NPs were removed aseptically and the nucleus pulposus (NP) was removed separately and enzymatically digested according to methods established by the present inventors^16. Similarly, human degenerative disc NPs were enzymatically digested using Pronase (0.4%, 1 hr at 37° C.) followed by Collagenase II treatment (0.015%, O/N, 37° C.). The following day, the cells were filtered with a 70p cell strainer and cultured within a hypoxic incubator (NuAire, MN, USA) in 3.5% O2, 5% CO2, in Advanced Dulbecco's modified Eagle's medium (ADMEM) supplemented with 8% fetal bovine serum (FBS) and penicillin and streptomycin (100 U/mL). For treatments, the cells were either cultured in serum free ADMEM (no treatment controls) or treated with interleukin-1β (IL-1β, 10 ng/mL), tumor necrosis factor-alpha (TNFα, 50 ng/mL), connective tissue growth factor (CTGF, 10-100 ng/mL), Wnt-inducible soluble protein 2 (WISP2, 10-100 ng/mL) or transforming growth factor beta 1 (TGFβ1, 5-20 ng/mL) for various time points under hypoxic conditions.
Equal amounts of whole cell or tissue lysates prepared using RIPA lysis buffer were subjected to Western blotting as described earlier^18,19. Total lysates (30 μg) were resolved on 10% sodium dodecyl sulphate-polyacrylamide gels (SDS-PAGE) under reducing conditions and then proteins were electro-transferred onto polyvinyledendifluoride (PVDF) membranes (BioRad, CA). After blocking with 5% non-fat powdered milk in Tris-buffered saline (TBS, 0.1 M, pH=7.4), blots were incubated with rabbit or goat polyclonal/mouse monoclonal primary antibodies at 4° C. overnight. […] Blots were washed three times with TTBS for 15 minutes and protein bands were detected by the enhanced chemiluminescence method (BioRad, CA) on Kodak Hyperfilm.

[4] = tested on: rat-tail disc NP cells (healthy/injured); test: MTT cell viability assay; settings: CTGF 100 ng/ml, TGFβ1 10 ng/ml, 48 hrs-72 hrs
Procedure: as §1

[5] = tested on: bovine degenerative disc NP cells; test: MTT cell viability assay; settings: CTGF 100 ng/ml, TGFβ1 10 ng/ml, 48 hrs-72 hrs
Procedure: as §1

[6] = tested on: rat degenerative disc NP cells; test: Caspase 3/7 Lumi-Glo assay, cytokine induced; settings: 48 hrs
Procedure: (§2) Apoptosis induced in NP cells (rat and human) as result of treatment with pro-inflammatory cytokines (IL-1β and TNFα) was determined using Caspase 3/7 and Caspase 9 specific Lumi-Glo assays (Promega, Madison). Briefly, NP cells were plated and treated with either IL-1β alone or in combination with TNFα only or in presence of CTGF and TGFβ1 for 48 hrs, followed by addition of specific reagents for Caspase 3/7 and Caspase 9 as per the manufacturer's instructions. Cells were incubated for another 4 hrs at 37° C., and plates were read in a multi-well luminescence plate reader.

[7] = tested on: human degenerative disc NP cells; test: Caspase 3/7 Lumi-Glo assay, cytokine induced; settings: 48 hrs
Procedure: as §2

TGFβ1: Human recombinant transforming growth factor beta 1, Peprotech cat #100-21, identified in NCCM
DNA synthesis (BrdU incorporation) [1]: Significant increase
DNA synthesis (BrdU incorporation) [2]: Significant increase
expression of MMP-3, MMP-13 and Cox2 proteins in presence of growth factor [3]: reduced expression
cell viability (MTT) [4]: increased the viability
cell viability (MTT) [5]: increased the viability
cytokine (IL-1β and TNFα)-induced caspase 3/7 activity [6]: significant decrease
cytokine (IL-1β and TNFα)-induced caspase 3/7 activity [7]: significant decrease
